Experimental data: patent US20180193294A1, “Dehydroabietic acid (DHAA) derivatives for use as ion channel openers” (priority 2015, published 2018)

Target: 3R Shaker K channel (Drosophila melanogaster, UniProt P08510, A359R/M356R)
Test: physchem
Assay type: cell-based
Details: 100 μM; for G(V) shift: Table 1; for G(V) shift / compound-induced G(V) shift (mean±SEM): pH 7.4, Xenopus oocytes; for effect on G(V) shift / current compared with DHAA: C7-modified DHAA; for relative current amplitude: representative traces at voltage giving 10% of maximum conductance in control
Text: A 3R Shaker K channel is a modified Shaker K channel where residues 356 and 359 are mutated to arginines.
All animal experiments were approved by the local Animal Care and Use Committee and followed international guidelines. A modified Shaker H4 channel^30, with removed N-type inactivation (ShH4IR)^31, here called the wild type (WT) channel, was expressed in oocytes. In addition, a modified 3R Shaker K channel where two introduced positive charged arginines (M356R and A359R) in addition to one native arginine (R362) makes the channel more sensitive to DHA^16, was expressed in oocytes and in a CHO—K1 stable cell line.
African clawed frogs (Xenopus laevis) were anesthetized with 1.4 g/L ethyl 3-aminobenzoate methanesulfonate salt (tricaine). After an incision through the abdomen a batch of oocytes were removed. Clusters of oocytes were separated by incubation for ˜1 h in a Ca-free O—R2 solution (in mM: 82.5 NaCl, 2 KCl, 5 HEPES, and 1 MgCl2; pH adjusted to 7.4 by NaOH) containing Liberase Blendzyme. The oocytes were then incubated at 8° C. in a modified Barth's solution (MBS; in mM: 88 NaCl, 1 KCl, 2.4 NaHCO3, 15 HEPES, 0.33 Ca(NO3)2, 0.41 CaCl2, and 0.82 MgSO4; pH adjusted to 7.6 by NaOH) supplemented with penicillin (25 U/ml), streptomycin (25 μg/ml), and sodium pyruvate (2.5 mM) 2-24 hours before injection. Fifty nl of cRNA (50 pg) were injected into each oocyte using a Nanoject injector (Drummond Scientific, Broomall, Pa.). Injected oocytes were kept at 8° C. in MBS until one day before electrophysiological recordings, when they were incubated at 16° C. All chemicals were supplied from Sigma-Aldrich (Stockholm, Sweden) if not stated otherwise.
All manual electrophysiological recordings were performed at room temperature (20-23° C.), using a GeneClamp 500B amplifier (for oocytes) or a Axopatch 200B amplifier (for manual patch clamp of CHO—K1 cells and DRG neurons) and a Digidata 1440A digitizer and pClamp 10 software (all from Molecular Devices, Inc., Sunnyvale, Calif., USA). Compounds were dissolved to 100 mM in 99.5% EtOH and stored at −20° C. Compounds were diluted in extracellular solution to the desired test concentration.
The oocyte was placed in a bath surrounded by 1K extracellular solution that contained (in mM): 88 NaCl, 1 KCl, 15 HEPES, 0.4 CaCl2, and 0.8 MgCl2, pH adjusted to 7.4 by NaOH (reaching a sodium concentration of ˜100 mM). Control solution was added to the bath with a gravity driven perfusion system. Compound solution was added to the bath manually with a syringe. Two glass microelectrodes were inserted into the oocyte using micromanipulators. […] All channels were closed when the potential was clamped to −80 mV and this voltage was set as the holding potential. Currents were evoked from the holding potential of −80 mV by 100-ms long, 5-mV steps ranging from −80 up to +50 mV (WT) and +70 mV (3R).
Conductance GK(V) was calculated as GK(V)=[…], (Eq. 1) where IK is the average current from the steady-state phase at the end of each 100-ms pulse, V is the membrane voltage, and Vrev is the reversal potential for K^+, (set to −80 mV for the oocytes, and calculated to be −89 mV for the CHO—K1 cells).
G(V)=A/(1+exp((V1/2−V)/s))^n (Eq. 2) where A is amplitude of the curve, V is the absolute membrane voltage, V1/2 is the midpoint, s is the slope and n is an exponent set to 4^17. The compound-induced G(V) shift was determined at the 10% level of the maximum conductance in control solution^17. The compound-induced G(V) shift in CHO—K1 was quantified by subtracting the control V1/2 from the compound V1/2 when n was set to 1.
Data for concentration and pH dependent G(V) shifts (ΔV) in oocytes were fit with a dose-response equation ΔV=ΔVmax/(1+c1/2/c), (Eq. 3) where Δvmax is the maximal shift, c1/2 is half maximal effective concentration/pKa value and c is the concentration.

Sequence of 3R Shaker K channel (P08510 whole entry M356R/A359R): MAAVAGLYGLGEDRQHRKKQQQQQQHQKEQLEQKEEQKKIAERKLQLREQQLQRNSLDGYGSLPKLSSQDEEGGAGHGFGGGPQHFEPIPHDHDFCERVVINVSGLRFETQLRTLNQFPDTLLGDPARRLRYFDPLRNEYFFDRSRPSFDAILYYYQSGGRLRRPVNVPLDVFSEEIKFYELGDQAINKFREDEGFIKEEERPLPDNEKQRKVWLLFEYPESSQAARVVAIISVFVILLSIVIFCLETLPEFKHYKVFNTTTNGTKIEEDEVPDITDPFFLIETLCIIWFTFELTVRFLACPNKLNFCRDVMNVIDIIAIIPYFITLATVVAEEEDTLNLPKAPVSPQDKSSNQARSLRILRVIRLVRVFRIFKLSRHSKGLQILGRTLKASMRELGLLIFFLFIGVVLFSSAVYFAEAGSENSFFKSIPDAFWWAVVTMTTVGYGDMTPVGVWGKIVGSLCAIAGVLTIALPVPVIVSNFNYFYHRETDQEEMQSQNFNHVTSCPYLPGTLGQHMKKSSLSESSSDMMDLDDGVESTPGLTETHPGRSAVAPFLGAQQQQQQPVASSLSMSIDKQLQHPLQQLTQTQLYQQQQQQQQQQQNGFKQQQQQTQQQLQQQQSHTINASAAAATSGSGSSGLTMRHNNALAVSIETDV

| Compound | G(V) shift | other results |
| --- | --- | --- |
| CC(C)c1cc2c(cc1Cl)[C@@]1(C)CCC[C@@](C)(C(=O)O)C1CC2=O (stereo partly drawn) [Wu20, (1R,4aS,E)-6-chloro-7-isopropyl-9-oxo-1,4a-dimethyl-1,2,3,4,4a,9,10,10a-octahydrophenanthrene-1-carboxylic acid] | −13.9 mV | – |
| C=CCO/N=C1\CC2[C@](C)(C(=O)O)CCC[C@]2(C)c2cc(C3CC3)c(C(C)C)cc21 (stereo partly drawn) [Wu123, (1R,4aS,E)-9-((allyloxy)imino)-6-cyclopropyl-7-isopropyl-1,4a-dimethyl-1,2,3,4,4a,9,10,10a-octahydrophenanthrene-1-carboxylic acid] | −26.3 mV | – |
| COC1CC2[C@](C)(C(=O)O)CCC[C@]2(C)c2ccc(C(C)C)cc21 (some centres unmarked) [Wu39] | −7.3 mV | effect on G(V) shift / current compared with DHAA (pH 7.4): clearly reduced the current increase; relative current amplitude (pH 7.4): 2.6 times |
| CON=C1C[C@H]2[C@](C)(C(=O)O)CCC[C@]2(C)c2ccc(C(C)C)cc21 [Wu36] | −14.8 mV | increase in G(V) shift relative to DHAA (ΔVc7, ΔVhalo, ΔVtot) (pH 7.4): −2.7 mV; compound-induced G(V) shift (mean±SEM): −14.8 mV; effect on G(V) shift / current compared with DHAA (pH 7.4): no significantly different effects compared to DHAA; relative current amplitude (pH 7.4): 4.4 times |
| CC(C)c1cc2c(cc1Br)C1(C)CCCC(C)(C(=O)O)C1CC2=NOCc1ccccc1 (centres unmarked) [Wu34] | −6.6 mV | – |
| CON=C1CC2C(C)(C(=O)O)CCCC2(C)c2ccc(C(C)C)c(F)c21 (centres unmarked) [Wu54] | −9.0 mV | – |
| CC(C)c1cc2c(cc1Cl)C1(C)CCCC(C)(C(=O)O)C1CC2=NOCc1ccccc1 (centres unmarked) [Wu22] | −9.1 mV | – |
| CC(C)c1ccc2c(c1)C(=NOCc1ccccc1)CC1C(C)(C(=O)O)CCCC21C (centres unmarked) [Compound K9] | −9.5 mV | effect on G(V) shift / current compared with DHAA (pH 7.4): no significantly different effects compared to DHAA |
| C=CCO/N=C1\C[C@H]2[C@](C)(C(=O)O)CCC[C@]2(C)c2c(Cl)cc(C(C)C)cc21 [Wu104, (1R,4aS,10aR)-9-((allyloxy)imino)-5-chloro-7-isopropyl-1,4a-dimethyl-1,2,3,4,4a,9,10,10a-octahydrophenanthrene-1-carboxylic acid] | −12.9 mV | – |
| CC(C)c1c(Cl)c(Cl)c2c(c1Cl)CCC1C(C)(C(=O)O)CCCC21C (centres unmarked) [Wu45] | −3.9 mV | – |
| CO/N=C1\C[C@H]2[C@](C)(C(=O)O)CCC[C@]2(C)c2ccc(C(C)C)c(I)c21 [Wu90] | −19.2 mV | – |
| C=CCON=C1CC2C(C)(C(=O)O)CCCC2(C)c2ccc(C(C)C)c(F)c21 (centres unmarked) [Wu53] | −9.2 mV | – |
| CC(C)C1=CC2=CC[C@@H]3[C@](C)(CCC[C@@]3(C)C(=O)O)[C@H]2CC1 [AA, abietic acid] | – | compound-induced G(V) shift (mean±SEM): −11.2±2 mV; ΔG(V) of representative G(V) curves (single examples) (pH 7.4, same cells as representative traces): −8.1 mV; relative current amplitude (pH 7.4): 2.2 times |
| CC(C)c1cc(Cl)c2c(c1Cl)CC[C@H]1[C@](C)(C(=O)O)CCC[C@]21C [Wu112] | −14.7 mV | – |
| C=CCO/N=C1\CC2[C@](C)(C(=O)O)CCC[C@]2(C)c2cc(C=C)c(C(C)C)cc21 (stereo partly drawn) [Wu120, (1R,4aS,E)-9-((allyloxy)imino)-7-isopropyl-1,4a-dimethyl-6-vinyl-1,2,3,4,4a,9,10,10a-octahydrophenanthrene-1-carboxylic acid] | −26.1 mV | – |
| C=Cc1cc2c(cc1C(C)C)/C(=N/OC)CC1[C@](C)(C(=O)O)CCC[C@]21C (stereo partly drawn) [Wu119, (1R,4aS,E)-7-isopropyl-9-(methoxyimino)-1,4a-dimethyl-6-vinyl-1,2,3,4,4a,9,10,10a-octahydrophenanthrene-1-carboxylic acid] | −30.3 mV | – |
| CC(C)c1ccc2c(c1Cl)C(=O)CC1[C@](C)(C(=O)O)CCC[C@]21C (some centres unmarked) [Wu15] | −4.9 mV | – |

| Compound | G(V) shift | other results |
| --- | --- | --- |
| CC(C)c1cc(Cl)c2c(c1)C(O)CC1[C@](C)(C(=O)O)CCC[C@]21C (some centres unmarked) [Wu101] | −9.6 mV | – |
| CC(C)c1cc2c(cc1I)[C@@]1(C)CCC[C@@](C)(C(=O)O)C1CC2 (stereo partly drawn) [Wu60, (1R,4aS,E)-6-iodo-7-isopropyl-1,4a-dimethyl-1,2,3,4,4a,9,10,10a-octahydrophenanthrene-1-carboxylic acid] | −9.0 mV | – |
| C=CCO/N=C1\CC2[C@](C)(C(=O)O)CCC[C@]2(C)c2cc(I)c(C(C)C)cc21 (stereo partly drawn) [Wu63, (1R,4aS,E)-9-((allyloxy)imino)-6-iodo-7-isopropyl-1,4a-dimethyl-1,2,3,4,4a,9,10,10a-octahydrophenanthrene-1-carboxylic acid] | −19.3 mV | – |
| CC(C)c1ccc2c(c1C1CC1)CC[C@H]1[C@](C)(C(=O)O)CCC[C@]21C [Wu127] | −9.6 mV | – |
| CC(C)c1ccc2c(c1F)C(=O)C[C@H]1[C@](C)(C(=O)O)CCC[C@]21C [Wu113] | −3.6 mV | – |
| CC(C)c1cc2c(cc1Br)[C@@]1(C)CCC[C@@](C)(C(=O)O)C1C/C2=N\O (stereo partly drawn) [Wu28, (1R,4aS,E)-6-bromo-9-(hydroxyimino)-7-isopropyl-1,4a-dimethyl-1,2,3,4,4a,9,10,10a-octahydrophenanthrene-1-carboxylic acid] | −12.4 mV | – |
| C=Cc1c(C(C)C)ccc2c1CCC1[C@](C)(C(=O)O)CCC[C@]21C (some centres unmarked) [Wu76] | −7.7 mV | – |
| C[C@]1(C(=O)O)CCC[C@]2(C)c3ccc(Cl)cc3CCC12 (stereo partly drawn) [Wu136, (1S,4aS)-7-chloro-1,4a-dimethyl-1,2,3,4,4a,9,10,10a-octahydrophenanthrene-1-carboxylic acid] | −17.8 mV | – |
| CC(C)c1ccc2c(c1F)CC[C@H]1[C@](C)(C(=O)O)CCC[C@]21C [Wu56, (1R,4aS,10aR)-8-fluoro-7-isopropyl-1,4a-dimethyl-1,2,3,4,4a,9,10,10a-octahydrophenanthrene-1-carboxylic acid] | −6.6 mV | – |
| C=CCON=C1CC2C(C)(C(=O)O)CCCC2(C)c2ccc(C(C)C)c(Br)c21 (centres unmarked) [Wu75] | −8.6 mV | – |
| CC(C)c1cc2c(cc1C1CC1)[C@@]1(C)CCC[C@@](C)(C(=O)O)C1CC2 (some centres unmarked) [Wu81] | −8.2 mV | – |
| CC(C)c1ccc2c(c1)C(=NO)CC1C(C)(C(=O)O)CCCC21C (centres unmarked) [Wu31] | −3.0 mV | effect on G(V) shift / current compared with DHAA (pH 7.4): clearly reduced the current increase |
| C=CCO/N=C1\C[C@H]2[C@](C)(C(=O)O)CCC[C@]2(C)c2ccc(C(C)C)c(I)c21 [Wu91, (1R,4aS,10aR)-9-((allyloxy)imino)-8-iodo-7-isopropyl-1,4a-dimethyl-1,2,3,4,4a,9,10,10a-octahydrophenanthrene-1-carboxylic acid] | −12.5 mV | – |
| CC(C)c1c(Cl)c(Cl)c2c(c1Cl)C(=NO)CC1C(C)(C(=O)O)CCCC21C (centres unmarked) [Wu48] | 4.7 mV | – |
| CC(C)c1c(Cl)cc2c(c1Cl)C(=O)CC1C(C)(C(=O)O)CCCC21C (centres unmarked) [Wu37] | −11.1 mV | – |
| CO/N=C1\CC2[C@](C)(C(=O)O)CCC[C@]2(C)c2ccc(C(C)C)c(Cl)c21 (stereo partly drawn) [Wu16, (1R,4aS,E)-8-chloro-7-isopropyl-9-methoxyimino-1,4a-dimethyl-1,2,3,4,4a,9,10,10a-octahydrophenanthrene-1-carboxylic acid] | −17.2 mV | – |
| CC(C)c1ccc2c(c1Cl)C(=NO)CC1C(C)(C(=O)O)CCCC21C (centres unmarked) [Wu17] | −5.3 mV | – |
